{"source": "PubChem BioAssay AID1259411", "about": "(Chemical Carcinogenesis Research Information System (CCRIS), 2018)", "test_system": "rodent carcinogenicity bioassays, tumor incidence", "assay": "CCRIS carcinogenicity studies", "description": "The CCRIS database contains chemical records with carcinogenicity, mutagenicity, tumor promotion, and tumor inhibition test results. It was developed by the National Cancer Institute (NCI). Data are derived from studies cited in primary journals, current awareness tools, NCI reports, and other sources. Test results have been reviewed by experts in carcinogenesis and mutagenesis.\nCCRIS provides historical information from the years 1985 - 2011. It is no longer updated.\nThis is an archive assay for CCRIS carcinogenicity studies.", "note": "Active and inactive are the calls of the source. No rule for the calls is given here."}
{"smiles": "c1ccc2c(c1)ccc1c3ccccc3ccc21", "values": [{"measurement": "carcinogen call", "setting": "Species: MOUSE, Route: DERMAL, Tumor Site: Type of Lesion: INTEGUMENTARY SYSTEM (SKIN)", "value": "active; positive"}, {"measurement": "carcinogen call", "setting": "Species: MOUSE, Strain/Sex: ICR/FEMALE, Route: DERMAL, Dose: 0, 0.1 MG, 3/WK FOR 17 MO, Tumor Site: Type of Lesion: INTEGUMENTARY SYSTEM (SKIN): CARCINOMA", "value": "active; positive"}, {"measurement": "carcinogen call", "setting": "Species: MOUSE, Strain/Sex: ICR/FEMALE, Route: INTRAPERITONEAL, Dose: 0, 6.3 UG TOTAL DOSE (0.9 UG/5 µL, 1.8 UG/10 µL, 3.6 UG/20 µL DMSO ON DAYS 1, 8 AND 15), 210 UG TOTAL DOSE (30 UG/5 µL,, Dose: 0, 6.3 UG TOTAL DOSE (0.9 UG/5 µL, 1.8 UG/10 µL, 3.6 UG/20 µL DMSO ON DAYS 1, 8 AND 15), 210 UG TOTAL DOSE (30 UG/5 µL", "value": "inactive; negative"}, {"measurement": "carcinogen call", "setting": "Species: MOUSE, Strain/Sex: ICR/MALE, Route: INTRAPERITONEAL, Dose: 0, 6.3 UG TOTAL DOSE (0.9 UG/5 µL, 1.8 UG/10 µL, 3.6 UG/20 µL DMSO ON DAYS 1, 8 AND 15), 210 UG TOTAL DOSE (30 UG/5 µL,, Dose: 0, 6.3 UG TOTAL DOSE (0.9 UG/5 µL, 1.8 UG/10 µL, 3.6 UG/20 µL DMSO ON DAYS 1, 8 AND 15), 210 UG TOTAL DOSE (30 UG/5 µL", "value": "inactive; negative"}, {"measurement": "carcinogen call", "setting": "Species: RAT, Strain/Sex: OSBORNE-MENDEL/FEMALE, Route: INTRAPULMONARY IMPLANT, Dose: 0, 1, 3 MG IN BEESWAX AND TRIOCTANOIN IMPLANTED IN LUNG (STUDY DURATION: 141 WK), Dose: 0, 1, 3 MG IN BEESWAX AND TRIOCTANOIN IMPLANTED IN LUNG (STUDY DURATION: 141 WK), Tumor Site: Type of Lesion: LUNG: CARCINOMA", "value": "active; positive"}]}
{"smiles": "CCC(=O)N(O)c1ccc(/C=C/c2ccccc2)cc1", "values": [{"measurement": "carcinogen call", "setting": "Species: RAT, Strain/Sex: STRAIN-CD/FEMALE, Route: INTRAPERITONEAL, Dose: 0, 10 UMOL/KG BW 2/WK FOR 6 WK (STUDY DURATION: 62 WK), Tumor Site: Type of Lesion: LIVER: NEOPLASTIC NODULE, MAMMARY GLAND: TUMOR, EAR DUCT: TUMOR, PITUITARY GLAND: CARCINOMA, Tumor Site: Type of Lesion: LIVER: NEOPLASTIC NODULE, MAMMARY GLAND: TUMOR, EAR DUCT: TUMOR, PITUITARY GLAND: CARCINOMA", "value": "active; positive"}, {"measurement": "carcinogen call", "setting": "Species: RAT, Strain/Sex: STRAIN-CD/MALE, Route: INTRAPERITONEAL, Dose: 0, 10 UMOL/KG BW 2/WK FOR 6 WK (STUDY DURATION: 62 WK), Tumor Site: Type of Lesion: TESTICLE: MESOTHELIOMA, PANCREAS(ACINUS): ADENOMA, PANCREAS(ISLET CELL): CARCINOMA, EAR DUCT: ADENOMA, CARCINOMA, LIVER:, Tumor Site: Type of Lesion: TESTICLE: MESOTHELIOMA, PANCREAS(ACINUS): ADENOMA, PANCREAS(ISLET CELL): CARCINOMA, EAR DUCT: ADENOMA, CARCINOMA, LIVER:", "value": "active; positive"}]}
{"smiles": "Cc1c(N)cccc1N", "values": [{"measurement": "carcinogen call", "setting": "Species: MOUSE, Strain/Sex: B6C3F1/FEMALE, Route: ORAL, Dose: 0, 50, 100 PPM IN DIET, Dose: 0, 50, 100 PPM IN DIET", "value": "inactive; negative"}, {"measurement": "carcinogen call", "setting": "Species: MOUSE, Strain/Sex: B6C3F1/MALE, Route: ORAL, Dose: 0, 50, 100 PPM IN DIET, Dose: 0, 50, 100 PPM IN DIET", "value": "inactive; negative"}, {"measurement": "carcinogen call", "setting": "Species: RAT, Strain/Sex: F344/FEMALE, Route: ORAL, Dose: 0, 250, 500 PPM IN DIET, Dose: 0, 250, 500 PPM IN DIET", "value": "inactive; negative"}, {"measurement": "carcinogen call", "setting": "Species: RAT, Strain/Sex: F344/MALE, Route: ORAL, Dose: 0, 250, 500 PPM IN DIET, Dose: 0, 250, 500 PPM IN DIET", "value": "inactive; negative"}]}
{"smiles": "CC1=CC(C)(C)Nc2ccccc21", "values": [{"measurement": "carcinogen call", "setting": "Species: MOUSE, Strain/Sex: B6C3F1/FEMALE, Route: DERMAL, Dose: 0, 3.6, 6, 10 MG/KG BW IN ACETONE 5 D/WK FOR 103 WK (STUDY DURATION: 103 WK), Dose: 0, 3.6, 6, 10 MG/KG BW IN ACETONE 5 D/WK FOR 103 WK (STUDY DURATION: 103 WK)", "value": "inactive; negative"}, {"measurement": "carcinogen call", "setting": "Species: MOUSE, Strain/Sex: B6C3F1/MALE, Route: DERMAL, Dose: 0, 3.6, 6, 10 MG/KG BW IN ACETONE 5 D/WK FOR 103 WK (STUDY DURATION: 103 WK), Dose: 0, 3.6, 6, 10 MG/KG BW IN ACETONE 5 D/WK FOR 103 WK (STUDY DURATION: 103 WK)", "value": "inactive; negative"}, {"measurement": "carcinogen call", "setting": "Species: RAT, Strain/Sex: F344/FEMALE, Route: DERMAL, Dose: 0, 36, 60, 100 MG/KG BW IN ACETONE 5 D/WK FOR 104 WK (STUDY DURATION: 106 WK), Dose: 0, 36, 60, 100 MG/KG BW IN ACETONE 5 D/WK FOR 104 WK (STUDY DURATION: 106 WK)", "value": "inactive; negative"}, {"measurement": "carcinogen call", "setting": "Species: RAT, Strain/Sex: F344/MALE, Route: DERMAL, Dose: 0, 36, 60, 100 MG/KG BW IN ACETONE 5 D/WK FOR 103 WK (STUDY DURATION: 105 WK), Dose: 0, 36, 60, 100 MG/KG BW IN ACETONE 5 D/WK FOR 103 WK (STUDY DURATION: 105 WK), Tumor Site: Type of Lesion: KIDNEY(RENAL TUBULE): ADENOMA OR CARCINOMA", "value": "active; positive"}]}
{"smiles": "O=Nc1ccc(NO)cc1", "values": [{"measurement": "carcinogen call", "setting": "Species: MOUSE, Strain/Sex: B6C3F1/FEMALE, Route: ORAL, Dose: 0, 750, 1500 PPM IN DIET FOR 104 WK (STUDY DURATION: 105 WK), Dose: 0, 750, 1500 PPM IN DIET FOR 104 WK (STUDY DURATION: 105 WK)", "value": "inactive; negative"}, {"measurement": "carcinogen call", "setting": "Species: MOUSE, Strain/Sex: B6C3F1/MALE, Route: ORAL, Dose: 0, 750, 1500 PPM IN DIET FOR 104 WK (STUDY DURATION: 105 WK), Dose: 0, 750, 1500 PPM IN DIET FOR 104 WK (STUDY DURATION: 105 WK)", "value": "inactive; negative"}, {"measurement": "carcinogen call", "setting": "Species: RAT, Strain/Sex: F344/FEMALE, Route: ORAL, Dose: 0, 375, 750 PPM IN DIET FOR 104 WK (STUDY DURATION: 105 WK), Dose: 0, 375, 750 PPM IN DIET FOR 104 WK (STUDY DURATION: 105 WK), Tumor Site: Type of Lesion: URINARY BLADDER: TRANSITIONAL CELL CARCINOMA, TRANSITIONAL CELL PAPILLOMA OR SQUAMOUS CELL CARCINOMA", "value": "active; positive"}, {"measurement": "carcinogen call", "setting": "Species: RAT, Strain/Sex: F344/MALE, Route: ORAL, Dose: 0, 375, 750 PPM IN DIET FOR 104 WK (STUDY DURATION: 105 WK), Dose: 0, 375, 750 PPM IN DIET FOR 104 WK (STUDY DURATION: 105 WK)", "value": "inactive; negative"}]}
{"smiles": "O[C@@H]1[C@@H]2O[C@@H]2c2c(ccc3cc4ccc5ccccc5c4nc23)[C@H]1O", "values": [{"measurement": "carcinogen call", "setting": "Species: MOUSE, Strain/Sex: CD-1/FEMALE, Route: INTRAPERITONEAL, Dose: 0, 28 NMOL (TOTAL DOSE) ADMINISTERED AS 1/7 OF DOSE WITHIN 24 HR AFTER BIRTH, 2/7 OF DOSE AT 8 D OLD, 4/7 OF DOSE AT 15, Tumor Site: Type of Lesion: LUNG: TUMOR", "value": "active; positive"}, {"measurement": "carcinogen call", "setting": "Species: MOUSE, Strain/Sex: CD-1/FEMALE, Route: INTRAPERITONEAL, Dose: 0, 70, 175 NMOL (TOTAL DOSE) ADMINISTERED AS 1/7 OF DOSE WITHIN 24 HR AFTER BIRTH, 2/7 OF DOSE AT 8 D OLD, 4/7 OF DOSE A, Dose: 0, 70, 175 NMOL (TOTAL DOSE) ADMINISTERED AS 1/7 OF DOSE WITHIN 24 HR AFTER BIRTH, 2/7 OF DOSE AT 8 D OLD, 4/7 OF DOSE A, Tumor Site: Type of Lesion: LIVER: TUMOR, LUNG: TUMOR", "value": "active; positive"}, {"measurement": "carcinogen call", "setting": "Species: MOUSE, Strain/Sex: CD-1/MALE, Route: INTRAPERITONEAL, Dose: 0, 28 NMOL (TOTAL DOSE) ADMINISTERED AS 1/7 OF DOSE WITHIN 24 HR AFTER BIRTH, 2/7 OF DOSE AT 8 D OLD, 4/7 OF DOSE AT 15, Tumor Site: Type of Lesion: LIVER: TUMOR, LUNG: TUMOR", "value": "active; positive"}, {"measurement": "carcinogen call", "setting": "Species: MOUSE, Strain/Sex: CD-1/MALE, Route: INTRAPERITONEAL, Dose: 0, 70, 175 NMOL (TOTAL DOSE) ADMINISTERED AS 1/7 OF DOSE WITHIN 24 HR AFTER BIRTH, 2/7 OF DOSE AT 8 D OLD, 4/7 OF DOSE A, Dose: 0, 70, 175 NMOL (TOTAL DOSE) ADMINISTERED AS 1/7 OF DOSE WITHIN 24 HR AFTER BIRTH, 2/7 OF DOSE AT 8 D OLD, 4/7 OF DOSE A, Tumor Site: Type of Lesion: LIVER: TUMOR, LUNG: TUMOR", "value": "active; positive"}]}
